Results on 1 molecule are retold here after patent publication US7223365B2, “Device and method for detecting the coagulation functions of global, especially primary hemostasis” (priority 2000, dated 2007).

The test has as its system platelet function. Briefly: examination of the coagulation function of the global, in particular the primary, hemostasis; volumetric flow regulated by pressure change in the reaction opening at constant shear rate. In kind it is cell-based. The note with it: FIG. 29; volumetric flow regulated at specified constant shear rate.

Source text: The sealing time and the sealing volume are measurement values for clinical analysis.

Regarding `CC(=O)Oc1ccccc1C(=O)O` [ASA, acetylsalicylic acid], the “deposition of platelets in the reaction opening” value is on record as “hardly any deposition of platelets” and the “measurement limits (sealing time / sealing volume)” value is “not reached”.
